Article PMC5633740, “Identification of YfiH and the Catalase CatA As Polyphenol Oxidases of Aeromonas media and CatA as a Regulator of Pigmentation by Its Peroxyl Radical Scavenging Capacity” (Frontiers in Microbiology, 2017)

Target: T1, CatA (PPO2; catalase; His6-tagged CatA) (Aeromonas media, UniProt A0AAE7AJ24)
T1 construct: gene E4188_09760; full ORF (1,449 bp) in pET-26b(+) NdeI/XhoI, His6-tagged, expressed in E. coli BL21(DE3), Ni-NTA; 55 kDa peak by gel filtration
Experiment: native-PAGE activity staining of purified protein
Format: biochemical
Conditions: 5 mM L-DOPA, 50 mM Tris-HCl pH 8.0, 30 °C, 30 min; qualitative

T1 sequence (A0AAE7AJ24 entry or part of it): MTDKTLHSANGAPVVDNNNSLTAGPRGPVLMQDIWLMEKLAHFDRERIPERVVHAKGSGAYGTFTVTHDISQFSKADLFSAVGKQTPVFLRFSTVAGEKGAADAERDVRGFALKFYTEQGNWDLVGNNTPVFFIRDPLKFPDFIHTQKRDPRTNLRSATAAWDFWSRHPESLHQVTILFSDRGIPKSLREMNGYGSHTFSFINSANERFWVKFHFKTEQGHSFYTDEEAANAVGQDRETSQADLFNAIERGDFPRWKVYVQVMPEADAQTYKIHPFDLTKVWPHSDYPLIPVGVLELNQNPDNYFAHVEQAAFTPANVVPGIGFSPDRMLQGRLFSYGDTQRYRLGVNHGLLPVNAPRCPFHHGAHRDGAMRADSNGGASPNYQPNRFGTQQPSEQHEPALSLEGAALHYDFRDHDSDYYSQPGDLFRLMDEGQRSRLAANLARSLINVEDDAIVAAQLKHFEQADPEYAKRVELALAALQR

N[C@@H](Cc1ccc(O)c(O)c1)C(=O)O [L-DOPA, L-3,4-dihydroxyphenylalanine]
native-PAGE activity staining of purified protein: All His6-tagged proteins exhibited both catalase and PPO activity
